# Laboratory results from patent US10947254B2, “Methods for treating ulcerative colitis using 3-((1R,3s,5S)-3-((7-((5-methyl-1H-pyrazol-3-yl)amino)-1,6-naphthyridin-5-yl)amino)-8-azabicyclo[3.2.1]octan-8-yl)propanenitrile” (priority 2015, dated 2021).
# System: IL-4 induced STAT6 phosphorylation in THP-1 human monocytic cells
# Settings: THP-1 cells
row,SMILES,THP-1 IL4 pIC50
1,Cc1cc(Nc2cc3ncccc3c(N[C@@H]3C[C@H]4CCC[C@@H](C3)N4S(=O)(=O)CC(C)C)n2)n[nH]1 [Example 4-17],A (A represents a pEC50 value ≥7.5 (EC50≤32 nM))
2,Cc1cc(Nc2cc3ncccc3c(N[C@@H]3C[C@H]4CCC[C@@H](C3)N4S(=O)(=O)C3CNC3)n2)n[nH]1 [Example 4-21],C (C represents a pEC50 value <6.7 (EC50>200 nM))
3,COC(=O)c1cnc2cc(Nc3cc(C)[nH]n3)nc(N[C@@H]3C[C@H]4CC[C@@H](C3)N4C[C@H]3CCC(=O)O3)c2c1 [Example 6-46],C (C represents a pEC50 value <6.7 (EC50>200 nM))
4,Cc1cc(Nc2cc3ncccc3c(N[C@@H]3C[C@H]4CC[C@@H](C3)N4CC(C)C)n2)n[nH]1 [Example 1-13],A (A represents a pEC50 value ≥7.5 (EC50≤32 nM))
5,COCCCN1[C@@H]2CC[C@H]1C[C@H](Nc1nc(Nc3cc(C)[nH]n3)cc3ncccc13)C2 [Example 1-15],C (C represents a pEC50 value <6.7 (EC50>200 nM))
6,Cc1cc(Nc2cc3ncccc3c(N[C@@H]3C[C@H]4CC[C@@H](C3)N4C[C@H]3CCC(=O)O3)n2)n[nH]1 [Example 1-29],C (C represents a pEC50 value <6.7 (EC50>200 nM))
7,Cc1cc(Nc2cc3ncccc3c(N[C@@H]3C[C@H]4CCC[C@@H](C3)N4CC(=O)OC(C)C)n2)n[nH]1 [Example 1-35],A (A represents a pEC50 value ≥7.5 (EC50≤32 nM))
8,Cc1cc(Nc2cc3nc(CN4CCOCC4)ccc3c(N[C@H]3C[C@H]4CCC[C@@H](C3)N4CC(F)(F)F)n2)n[nH]1 [Example 5-29],B (B represents a pEC50 value between 6.7 and 7.5 (EC50 between 200 nM and 32 nM))
9,COc1cnc2cc(Nc3cc(C)[nH]n3)nc(N[C@@H]3C[C@H]4CC[C@@H](C3)N4CCC#N)c2c1 [Example 6-11],A (A represents a pEC50 value ≥7.5 (EC50≤32 nM))
10,CCS(=O)(=O)N1[C@@H]2CCC[C@H]1C[C@H](Nc1nc(Nc3cc(C)[nH]n3)cc3nc(CN4CCOCC4)ccc13)C2 [Example 5-23],A (A represents a pEC50 value ≥7.5 (EC50≤32 nM))
11,CCOCC(=O)N1[C@@H]2CC[C@H]1C[C@H](Nc1nc(Nc3cc(C)[nH]n3)cc3ncccc13)C2 [Example 2-4],C (C represents a pEC50 value <6.7 (EC50>200 nM))
12,COC(=O)c1cnc2cc(Nc3cc(C)[nH]n3)nc(N[C@@H]3C[C@H]4CC[C@@H](C3)N4CC(=O)OC(C)C)c2c1 [Example 6-41],A (A represents a pEC50 value ≥7.5 (EC50≤32 nM))
13,Cc1cc(Nc2nc(NC3CC4CCC(C3)N4C(=O)C(C)O)c3cccnc3c2F)n[nH]1 (stereo not shown) [Example 8-8],C (C represents a pEC50 value <6.7 (EC50>200 nM))
14,CNC(=O)CN1[C@@H]2CC[C@H]1C[C@H](Nc1nc(Nc3cc(C)[nH]n3)cc3ncccc13)C2 [Example 1-7],C (C represents a pEC50 value <6.7 (EC50>200 nM))
15,Cc1cc(Nc2cc3ncc(S(C)(=O)=O)cc3c(N[C@@H]3C[C@H]4CC[C@@H](C3)N4CCCF)n2)n[nH]1 [Example 6-55],C (C represents a pEC50 value <6.7 (EC50>200 nM))
16,Cc1cc(Nc2cc3ncc(S(C)(=O)=O)cc3c(N[C@@H]3C[C@H]4CC[C@@H](C3)N4[C@@H]3CCOC3=O)n2)n[nH]1 [Example 6-58],C (C represents a pEC50 value <6.7 (EC50>200 nM))
17,Cc1cc(Nc2cc3ncccc3c(N[C@@H]3C[C@H]4CC[C@@H](C3)N4CCCF)n2)n[nH]1 [Example 1-9],C (C represents a pEC50 value <6.7 (EC50>200 nM))
18,Cc1cc(Nc2cc3ncccc3c(N[C@@H]3C[C@H]4CC[C@@H](C3)N4C(=O)OCC(C)C)n2)n[nH]1 [Example 3-3],A (A represents a pEC50 value ≥7.5 (EC50≤32 nM))
19,COC(=O)c1cnc2cc(Nc3cc(C)[nH]n3)nc(N[C@@H]3C[C@H]4CC[C@@H](C3)N4CCC#N)c2c1 [Example 6-32],A (A represents a pEC50 value ≥7.5 (EC50≤32 nM))

row,SMILES,THP-1 IL4 pIC50
1,COc1cnc2cc(Nc3cc(C)[nH]n3)nc(N[C@@H]3C[C@H]4CCC[C@@H](C3)N4C(=O)CN(C)C)c2c1 [Example 6-30],C (C represents a pEC50 value <6.7 (EC50>200 nM))
2,CCC(C)C(=O)N1C2CCCC1CC(Nc1nc(Nc3cc(C)[nH]n3)cc3ncccc13)C2 (stereo not shown) [Example 2-18],A (A represents a pEC50 value ≥7.5 (EC50≤32 nM))
3,Cc1ccc(S(=O)(=O)N2[C@@H]3CCC[C@H]2C[C@H](Nc2nc(Nc4cc(C)[nH]n4)cc4ncccc24)C3)cn1 [Example 4-25],A (A represents a pEC50 value ≥7.5 (EC50≤32 nM))
4,Cc1cc(Nc2nc(N[C@@H]3C[C@H]4CC[C@@H](C3)N4C(=O)CN(C)C)c3cccnc3c2F)n[nH]1 [Example 8-7],C (C represents a pEC50 value <6.7 (EC50>200 nM))
5,COc1ccnc2cc(Nc3cc(C)[nH]n3)nc(N[C@@H]3C[C@H]4CC[C@@H](C3)N4CCC#N)c12 [Example 7-6],A (A represents a pEC50 value ≥7.5 (EC50≤32 nM))
6,Cc1cc(Nc2cc3ncccc3c(N[C@@H]3C[C@H]4CCC[C@@H](C3)N4S(C)(=O)=O)n2)n[nH]1 [Example 4-16],A (A represents a pEC50 value ≥7.5 (EC50≤32 nM))
7,Cc1cc(Nc2cc3ncccc3c(N[C@@H]3C[C@H]4CC[C@@H](C3)N4CC(N)=O)n2)n[nH]1 [Example 1-6],C (C represents a pEC50 value <6.7 (EC50>200 nM))
8,Cc1cc(Nc2cc3ncccc3c(N[C@@H]3C[C@H]4CC[C@@H](C3)N4CCC(F)(F)F)n2)n[nH]1 [Example 1-10],C (C represents a pEC50 value <6.7 (EC50>200 nM))
9,Cc1cc(Nc2cc3ncccc3c(N[C@@H]3C[C@H]4CCC[C@@H](C3)N4CC(=O)N[C@H]3CCOC3=O)n2)n[nH]1 [Example 1-42],C (C represents a pEC50 value <6.7 (EC50>200 nM))
10,Cc1cc(Nc2nc(N[C@@H]3C[C@H]4CCC[C@@H](C3)N4C(=O)CN(C)C)c3cccnc3c2F)n[nH]1 [Example 8-15],C (C represents a pEC50 value <6.7 (EC50>200 nM))
11,CNC(=O)CN1[C@@H]2CC[C@H]1C[C@H](Nc1nc(Nc3cc(C)[nH]n3)cc3ncc(C(=O)OC)cc13)C2 [Example 6-42],C (C represents a pEC50 value <6.7 (EC50>200 nM))
12,C=CCOC(=O)N1[C@@H]2CC[C@H]1C[C@H](Nc1nc(Nc3cc(C)[nH]n3)cc3ncccc13)C2 [Example 3-4],A (A represents a pEC50 value ≥7.5 (EC50≤32 nM))
13,Cc1cc(Nc2cc3ncccc3c(N[C@@H]3C[C@H]4CCC[C@@H](C3)N4Cc3cccc(O)c3)n2)n[nH]1 [Example 1-49],A (A represents a pEC50 value ≥7.5 (EC50≤32 nM))
14,Cc1cc(Nc2cc3ncccc3c(N[C@@H]3C[C@H]4CC[C@@H](C3)N4CC(=O)N(C)C)n2)n[nH]1 [Example 1-8],C (C represents a pEC50 value <6.7 (EC50>200 nM))
15,Cc1cc(Nc2cc3ncccc3c(N[C@@H]3C[C@H]4CC[C@@H](C3)N4C(=O)CN(C)C)n2)n[nH]1 [Example 2-5],C (C represents a pEC50 value <6.7 (EC50>200 nM))
16,Cc1cc(Nc2cc3ncccc3c(N[C@@H]3C[C@H]4CCC[C@@H](C3)N4CC(=O)N[C@@H]3CCOC3=O)n2)n[nH]1 [Example 1-41],C (C represents a pEC50 value <6.7 (EC50>200 nM))
17,COC(=O)CN1[C@@H]2CCC[C@H]1C[C@H](Nc1nc(Nc3cc(C)[nH]n3)cc3ncccc13)C2 [Example 1-32],C (C represents a pEC50 value <6.7 (EC50>200 nM))
18,Cc1cnc2c(F)c(Nc3cc(C)[nH]n3)nc(N[C@@H]3C[C@H]4CC[C@@H](C3)N4S(=O)(=O)N3CC(C#N)C3)c2c1 [Example 8-19],C (C represents a pEC50 value <6.7 (EC50>200 nM))
